Where a name gives a salt, the structure may show the parent alone. Read-outs that look alike come from different tables or passages of the source.
Columns and labels:
[1] = Metabolic stability in human liver microsomes, unbound intrinsic clearance (Cl int/fu mic); assay type: in vitro ADME; conditions: pH 7.4, human liver microsomes 0.25 mg/mL, 0.5 μM compound, NADPH, read-out: Cl int, mic unb. (h) [l/h/kg] (unbound intrinsic clearance, human)
Procedure, shortened: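 Compound (0.5 µM) was incubated with human liver microsomes (0.25 mg/mL) in pH 7.4 phosphate buffer at 37 °C with 1.0 mM NADPH, sampling from 0–30 min. Depletion was followed by LC-MS/MS, and CLint was derived from first-order t1/2 per mg protein. Microsomal unbound fraction came from 4 h equilibrium dialysis at 37 °C, giving CLint/fu mic.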

5-HT2C receptor = target: T1, 5-HT2C receptor (Homo sapiens, UniProt P28335); assay: Human 5-HT2C functional assay (beta-arrestin2 recruitment, U2OS_HTR2C_β-Arrestin cells); assay type: cell-based; conditions: for EC50: beta-arrestin2 recruitment, U2OS_HTR2C_β-Arrestin cells, 1.5 h incubation, read-out: EC50 5-HT2C (potency in functional assay); for Emax: relative efficacy vs response to 10 μM 5-HT or maximal 5-HT effect (100%)
T1 construct: host or cells: U2OS
Procedure, shortened: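 U2OS cells expressing HTR2C with β-galactosidase complementation, switched to 1% serum medium 24 h post-plating, were treated next day with compound for 1.5 h; chemiluminescence read. Response expressed as % of 10 µM 5-HT or maximal 5-HT effect; EC50 from 4-parameter variable-slope fit.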

T1 sequence (P28335 33-458): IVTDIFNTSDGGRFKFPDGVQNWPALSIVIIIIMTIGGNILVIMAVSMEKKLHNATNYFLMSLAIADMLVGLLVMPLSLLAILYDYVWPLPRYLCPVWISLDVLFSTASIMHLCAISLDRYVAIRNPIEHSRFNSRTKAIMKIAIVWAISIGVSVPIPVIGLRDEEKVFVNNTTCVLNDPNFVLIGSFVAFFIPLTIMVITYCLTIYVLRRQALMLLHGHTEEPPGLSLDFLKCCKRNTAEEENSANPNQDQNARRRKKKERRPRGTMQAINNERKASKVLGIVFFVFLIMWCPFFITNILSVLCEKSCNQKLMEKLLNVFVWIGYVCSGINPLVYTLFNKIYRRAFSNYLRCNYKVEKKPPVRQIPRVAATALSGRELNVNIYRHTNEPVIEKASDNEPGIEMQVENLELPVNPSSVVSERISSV
T1 sequence (P32121 whole entry partner): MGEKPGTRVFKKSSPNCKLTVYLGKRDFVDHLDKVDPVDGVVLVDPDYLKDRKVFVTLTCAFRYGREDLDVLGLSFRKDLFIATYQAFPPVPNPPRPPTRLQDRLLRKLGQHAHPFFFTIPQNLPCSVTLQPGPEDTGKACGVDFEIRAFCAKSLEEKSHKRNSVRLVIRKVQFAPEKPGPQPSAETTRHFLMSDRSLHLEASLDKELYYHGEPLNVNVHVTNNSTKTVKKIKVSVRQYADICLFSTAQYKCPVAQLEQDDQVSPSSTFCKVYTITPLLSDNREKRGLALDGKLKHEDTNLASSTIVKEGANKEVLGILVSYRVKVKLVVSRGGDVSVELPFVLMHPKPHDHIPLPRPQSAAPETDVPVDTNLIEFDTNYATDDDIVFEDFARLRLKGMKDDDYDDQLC

Structure (SMILES)	CLint scaled at 0.5 μM ([1]; human, liver microsomes) [L/h/kg]	EC50 (5-HT2C receptor) [µM]	Emax (5-HT2C receptor) [%]	CLint scaled at 0.5 μM [1] [L/h/kg]
COc1nc(N2CCC(F)C2)c(F)cc1CNC(=O)[C@@H]1CCCN1 (stereo partly drawn) [Example 162, (2S)—N-[[5-Fluoro-6-(3-Fluoropyrrolidin-1-yl)-2-methoxy-3-pyridyl]methyl]-pyrrolidine-2-carboxamide; 2,2,2-trifluoroacetic Acid]	5 to 50	0.02 to 0.2	50 to 70	
COc1nc(N2CCC(C(F)(F)F)C2)c(F)cc1CNC(=O)[C@@H]1CCCN1 (stereo partly drawn) [Example 163, (2S)—N-[[5-Fluoro-2-methoxy-6-[3-(trifluoromethyl)pyrrolidin-1-yl]-3-pyridyl]methyl]pyrrolidine-2-carboxamide; 2,2,2-trifluoroacetic Acid]	5 to 50	< 0.02	> 70	
COc1nc(N2CCC(F)(F)C2)c(F)cc1CNC(=O)[C@@H]1CCCN1 [Example 164, (2S)—N-[[6-(3,3-Difluoropyrrolidin-1-yl)-5-fluoro-2-methoxy-3-pyridyl]methyl]pyrrolidine-2-carboxamide; 2,2,2-trifluoroacetic Acid]	< 5	0.02 to 0.2	> 70	
COc1nc(N2CCC(F)(F)CC2)c(F)cc1CN(C)C(=O)[C@@H]1CCCN1 [Example 165, (2S)—N-[[6-(4,4-Difluoro-1-piperidyl)-5-fluoro-2-methoxy-3-pyridyl]methyl]-N-methyl-pyrrolidine-2-carboxamide; 2,2,2-trifluoroacetic Acid]	< 5	0.02 to 0.2	50 to 70	
COc1nc(NC2CCC(F)(F)CC2)c(F)cc1CN(C)C(=O)[C@@H]1CCCN1 [Example 166, (2S)—N-[[6-[(4,4-Difluorocyclohexyl)amino]-5-fluoro-2-methoxy-3-pyridyl]methyl]-N-methyl-pyrrolidine-2-carboxamide; 2,2,2-trifluoroacetic Acid]	< 5	0.02 to 0.2	50 to 70	
COc1nc(C2=CCC(OC)CC2)c(F)cc1CNC(=O)[C@@H]1CCCN1 (stereo partly drawn) [Example 167, (2S)—N-[[5-Fluoro-2-methoxy-6-(4-methoxycyclohexen-1-yl)-3-pyridyl]methyl]-pyrrolidine-2-carboxamide]	< 5	0.2 to 1	> 70	
COCCCc1nc(OC)c(CNC(=O)[C@@H]2CCCN2)cc1F [Example 168, (2S)—N-[[5-Fluoro-2-methoxy-6-(3-methoxypropyl)-3-pyridyl]methyl]pyrrolidine-2-carboxamide]	< 5	0.2 to 1	> 70	
COc1nc(NCC2CCC(F)(F)CC2)c(F)cc1CNC(=O)[C@@H]1CCCN1 [Example 169, (2S)—N-[[6-[(4,4-Difluorocyclohexyl)methylamino]-5-fluoro-2-methoxy-3-pyridyl]methyl]pyrrolidine-2-carboxamide; 2,2,2-trifluoroacetic Acid]	< 5	< 0.02	> 70	
COc1nc(NCc2ccccc2)c(F)cc1CNC(=O)[C@@H]1CCCN1 [Example 170, (2S)—N-[[6-(Benzylamino)-5-fluoro-2-methoxy-3-pyridyl]methyl]pyrrolidine-2-carboxamide; 2,2,2-trifluoroacetic Acid]	< 5	0.02 to 0.2	> 70	
CCCN(Cc1ccccc1)c1nc(OC)c(CNC(=O)[C@@H]2CCCN2)cc1F [Example 171, (2S)—N-[[6-[Benzyl(propyl)amino]-5-fluoro-2-methoxy-3-pyridyl]methyl]-pyrrolidine-2-carboxamide Hydrochloride]	5 to 50	0.2 to 1	> 70	
COc1nc(C2CCC(OC)CC2)c(F)cc1CNC(=O)[C@@H]1CCCN1 (stereo partly drawn) [Example 172, (2S)—N-[[5-Fluoro-2-methoxy-6-(4-methoxycyclohexyl)-3-pyridyl]methyl]-pyrrolidine-2-carboxamide]	< 5	0.02 to 0.2	> 70	
COc1nc(N2CCOC(c3ccccc3)C2)c(F)cc1CNC(=O)[C@@H]1CCCN1 (stereo partly drawn) [Example 173, (2S)—N-[[5-Fluoro-2-methoxy-6-(2-phenylmorpholin-4-yl)-3-pyridyl]methyl]-pyrrolidine-2-carboxamide; 2,2,2-trifluoroacetic Acid]	5 to 50	0.2 to 1	50 to 70	
COc1nc(N2CC(C)OC(C)C2)c(F)cc1CNC(=O)[C@@H]1CCCN1 (stereo partly drawn) [Example 174, (2S)—N-[[6-(2,6-Dimethylmorpholin-4-yl)-5-fluoro-2-methoxy-3-pyridyl]methyl]-pyrrolidine-2-carboxamide; 2,2,2-trifluoroacetic Acid]	< 5	0.2 to 1	30 to 50	
COc1nc(N2CC(Oc3ccccc3)C2)c(F)cc1CNC(=O)[C@@H]1CCCN1 [Example 175, (2S)—N-[[5-Fluoro-2-methoxy-6-(3-phenoxyazetidin-1-yl)-3-pyridyl]methyl]-pyrrolidine-2-carboxamide; 2,2,2-trifluoroacetic Acid]	5 to 50	0.02 to 0.2	50 to 70	
COc1nc(N2CC(C)(Oc3ccccc3)C2)c(F)cc1CNC(=O)[C@@H]1CCCN1 [Example 176, (2S)—N-[[5-Fluoro-2-methoxy-6-(3-methyl-3-phenoxy-azetidin-1-yl)-3-pyridyl]methyl]pyrrolidine-2-carboxamide; 2,2,2-trifluoroacetic Acid]	5 to 50	< 0.02	> 70	
COc1nc(NCc2ccc(F)cc2)c(F)cc1CNC(=O)[C@@H]1CCCN1 [Example 177, (2S)—N-[[5-Fluoro-6-[(4-fluorophenyl)methylamino]-2-methoxy-3-pyridyl]methyl]-pyrrolidine-2-carboxamide; 2,2,2-trifluoroacetic Acid]	< 5	0.02 to 0.2	> 70	
COc1nc(Nc2ccc(F)cc2)c(F)cc1CNC(=O)[C@@H]1CCCN1 [Example 178, (2S)—N-[[5-Fluoro-6-(4-fluoroanilino)-2-methoxy-3-pyridyl]methyl]pyrrolidine-2-carboxamide; 2,2,2-trifluoroacetic Acid]	< 5	0.2 to 1		
COc1nc(N(C)Cc2ccccc2)c(F)cc1CNC(=O)[C@@H]1CCCN1 [Example 179, (2S)—N-[[6-[N-Benzyl-N-methyl-amino]-5-fluoro-2-methoxy-3-pyridyl]methyl]-pyrrolidine-2-carboxamide; 2,2,2-trifluoroacetic Acid]	5 to 50	0.2 to 1	50 to 70	
COc1nc(N2CCC(C3CCC(C(F)(F)F)CC3)CC2)c(F)cc1CNC(=O)[C@@H]1CCCN1 (stereo partly drawn) [Example 180, (2S)—N-[[5-Fluoro-2-methoxy-6-[4-[4-(trifluoromethyl)cyclohexyl]-1-piperidyl]-3-pyridyl]methyl]pyrrolidine-2-carboxamide; 2,2,2-trifluoroacetic Acid]	50 to 500	0.2 to 1	> 70	
COc1nc(N2CC(F)(F)C(F)(F)C(F)(F)C2)c(F)cc1CNC(=O)[C@@H]1CCCN1 [Example 182, (2S)—N-[[5-Fluoro-6-(3,3,4,4,5,5-hexafluoro-1-piperidyl)-2-methoxy-3-pyridyl]-methyl]pyrrolidine-2-carboxamide Hydrochloride]		< 0.02	> 70	5 to 50
COc1nc(N2CC3C(C2)C3(F)F)c(F)cc1CNC(=O)[C@@H]1CCCN1 (stereo partly drawn) [Example 183, (2S)—N-[[6-(6,6-Difluoro-3-azabicyclo[3.1.0]hexan-3-yl)-5-fluoro-2-methoxy-3-pyridyl]methyl]pyrrolidine-2-carboxamide]	5 to 50	0.02 to 0.2	> 70	
COc1nc(N2CCC3C(C2)C3(F)F)c(F)cc1CNC(=O)[C@@H]1CCCN1 (stereo partly drawn) [Example 184, (2S)—N-[[6-(7,7-Difluoro-4-azabicyclo[4.1.0]heptan-4-yl)-5-fluoro-2-methoxy-3-pyridyl]methyl]pyrrolidine-2-carboxamide; 2,2,2-trifluoroacetic Acid]	5 to 50	0.02 to 0.2	> 70	
COc1nc(NCCCc2ccccc2)c(F)cc1CNC(=O)[C@@H]1CCCN1 [Example 185, (2S)—N-[[5-Fluoro-2-methoxy-6-(3-phenylpropylamino)-3-pyridyl]methyl]-pyrrolidine-2-carboxamide; 2,2,2-trifluoroacetic acid]	5 to 50	0.02 to 0.2	> 70	
COc1nc(NC2CCC2C(F)(F)F)c(F)cc1CNC(=O)[C@@H]1CCCN1 (stereo partly drawn) [Example 186, (2S)—N-[[5-Fluoro-2-methoxy-6-[[2-(trifluoromethyl)cyclobutyl]amino]-3-pyridyl]-methyl]pyrrolidine-2-carboxamide]	< 5	0.02 to 0.2	> 70	
COc1nc(N2CCC(CC(F)(F)F)C2)c(F)cc1CNC(=O)[C@@H]1CCCN1 (stereo partly drawn) [Example 187, (2S)—N-[[5-Fluoro-2-methoxy-6-[3-(2,2,2-trifluoroethyl)pyrrolidin-1-yl]-3-pyridyl]methyl]pyrrolidine-2-carboxamide; 2,2,2-trifluoroacetic Acid]	5 to 50	0.02 to 0.2	> 70	

Source: patent publication US20190062305A1, “PYRIDYL OR PYRAZINYL COMPOUNDS CARRYING A METHYL-BOUND ALPHA-AMINO ACID AMIDE GROUP” (ABBVIE DEUTSCHLAND GMBH & CO. KG, priority 2015, published 2019)
